Molecular target: T1, human FSH receptor (Homo sapiens, UniProt P23945)
T1 construct: expressed in transfected cells; host or cells: CHO cells (hFSHR clone 16)
T1 sequence (P23945 18-695): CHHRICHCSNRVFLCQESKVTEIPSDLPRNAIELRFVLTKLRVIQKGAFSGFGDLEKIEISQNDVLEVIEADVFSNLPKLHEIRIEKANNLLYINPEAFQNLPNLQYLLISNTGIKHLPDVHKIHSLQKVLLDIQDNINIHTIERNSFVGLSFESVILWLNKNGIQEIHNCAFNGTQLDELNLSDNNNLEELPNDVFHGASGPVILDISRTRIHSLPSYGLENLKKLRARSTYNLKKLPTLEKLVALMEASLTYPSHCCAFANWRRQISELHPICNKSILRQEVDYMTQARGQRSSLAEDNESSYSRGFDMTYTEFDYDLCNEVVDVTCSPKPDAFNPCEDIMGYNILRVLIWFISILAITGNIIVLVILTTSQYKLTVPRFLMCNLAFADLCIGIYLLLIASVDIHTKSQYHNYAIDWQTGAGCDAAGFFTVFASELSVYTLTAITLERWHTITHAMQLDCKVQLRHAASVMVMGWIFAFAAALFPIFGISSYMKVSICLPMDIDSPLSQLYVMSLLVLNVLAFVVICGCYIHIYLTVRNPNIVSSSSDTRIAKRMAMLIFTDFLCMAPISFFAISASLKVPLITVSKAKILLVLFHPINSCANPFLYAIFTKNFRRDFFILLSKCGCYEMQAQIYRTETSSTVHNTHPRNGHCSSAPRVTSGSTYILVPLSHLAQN
Test: HTRF assay for measuring cAMP in cells (FSH-antagonistic effect)
Type: cell-based
Conditions: hFSHR clone 16 cells (CHO cells stably transfected with the human FSH receptor), in the presence of 1e-9 mol/l hFSH, 37° C. for 2 h
Procedure: HTRF Assay for Measuring cAMP in Cells
The method is based on a competitive immunoassay between native cAMP, which has been produced by the cells, and cAMP which is labelled with cAMPD2 conjugate. The tracer binding was visualized by a monoclonal antibody, anti-cAMP labelled with cryptate [HTRF=homogeneous time-resolved fluorescence].
The specific signal is inversely proportional to the cAMP concentration of the samples employed.
The 665 nm/620 nm fluorescence ratio was evaluated.
Materials used: 96-well plates for the tissue culture, 96-well plates with black edge and black base (e.g. Fluotrac 600 from Greiner), 96-well plates for the substance dilutions of polypropylene and cAMP Femtomolar (4000 wells Kit, CIS Bio International # 62AM5PEJ).
Reagent used: BSA (bovine serum albumin) Fraction V protease-free, IBMX (3-isobutyl-1-methylxanthine), hFSH (human follicle stimulating hormone), Triton X-100 analytical grade, potassium fluoride analytical grade, G 418 (Geneticin) and Accutase.
Buffer 1 (washing and testing buffer) contained PBS, 1 mM CaCl2, 1 mM MgCl2, 0.2% glucose; 0.1% BSA, 1 mM IBMX.
Buffer 2 (2× lysis buffer) contained 1% Triton X-100 in PBS (without CaCl2 and MgCl2).
Buffer 3 (assay buffer) contained 50 mM potassium phosphate buffer (pH 7.0); 800 mM potassium fluoride; 0.2% BSA (always added fresh).
On day 1, the cells were seeded in 96-well plates (3×10^4 cells per well hFSHR clone 16 cells (CHO cells stably transfected with the human FSH receptor in 150 μl of medium). The next day, test substance dilutions were made up. For this purpose, all the substances were diluted in ice-cold buffer 1 (with or without hFSH), and the substance dilutions were placed on ice until applied to the cells. The cell supernatant was then aspirated off, and the cells were washed 2× with 200 μl of buffer 1. The cells were treated with 60 μl of the appropriate substance concentrations at 37° C. for 2 h. The cells were then lysed with 60 μl of buffer 2 (put onto the supernatant) (on a plate shaker at RT for 30 min). The test conjugates (cAMP-D2 and anti-cAMP cryptate, CIS Bio) were diluted in buffer 3 in accordance with the manufacturers' information. The actual mixture for measurement was pipetted into a black 96-well plate (in each case 15 μl of the cell lysate diluted with 35 μl of buffer 1; firstly 25 μl of cAMP-D2 conjugate were pipetted and, after 10 min, 25 μl of the anti-cAMP cryptate were added). This is followed by incubation at RT for 90 minutes. The measurement was carried out in a PheraStar (BMG).
Dose-effect curve (hFSH) for the human receptor: 1e-8, 3e-9, 1e-9, 3e-10, 1e-10, 3e-11, 1e-11, 3e-12 mol/l.
The test substances were employed in suitable dilutions in the absence (test for agonism) and in the presence of 1e-9 mol/l hFSH.
The values of the well ratio were averaged and then entered directly in SigmaPlot versus the concentrations. The maximum and minimum values were determined for each plate, and half the difference is to be regarded as IC50.

Row | Compound | IC50
1 | Cc1ccc(C)c(C#Cc2ccc(OC(C)C)c(C(=O)N[C@@H](CO)Cc3c[nH]c4ccccc34)c2)c1 [Example 48, 5-(2,5-Dimethyl-phenylethynyl)-N-[(R)-1-hydroxymethyl-2-(1H-indol-3-yl)-ethyl]-2-isopropoxy-benzamide] | 30 nM
2 | CC(C)Oc1ccc(C#Cc2ccc3ccccc3c2)cc1C(=O)N[C@@H](CO)Cc1c[nH]c2ccccc12 [Example 52, N-[(R)-1-Hydroxymethyl-2-(1H-indol-3-yl)-ethyl]-2-isopropoxy-5-naphthalen-2-ylethynyl-benzamide] | 80 nM
3 | CC(C)Oc1ccc(C#Cc2cccc(-c3nnn[nH]3)c2)cc1C(=O)N[C@@H](CO)Cc1c[nH]c2ccccc12 [Example 148, N-[(R)-2-Hydroxy-1-(1H-indol-3-ylmethyl)-ethyl]-2-isopropoxy-5-[3-(1H-tetrazol-5-yl)-phenylethynyl]-benzamide] | 30 nM
4 | Cc1ccc(C#Cc2ccc(OC(C)C)c(C(=O)N[C@@H](CO)Cc3c[nH]c4ccccc34)c2)nc1 [Example 94, N-[(R)-1-Hydroxymethyl-2-(1H-indol-3-yl)-ethyl]-2-isopropoxy-5-(5-methyl-pyridin-2-ylethynyl)-benzamide] | 80 nM
5 | COC(=O)CCCCCNC(=O)c1ccc(C#Cc2ccc(OC(C)C)c(C(=O)N[C@@H](CO)Cc3c[nH]c4ccccc34)c2)cc1 [Example 171, 6-(4-{3-[(R)-1-Hydroxymethyl-2-(1H-indol-3-yl)-ethylcarbamoyl]-4-isopropoxy-phenylethynyl}-benzoylamino)-hexanoic acid methyl ester] | 25 nM
6 | CC(C)Oc1ccc(C#Cc2ccc(C(=O)O)o2)cc1C(=O)N[C@@H](CO)Cc1c[nH]c2ccccc12 [Example 88, 5-{3-[(R)-1-Hydroxymethyl-2-(1H-indol-3-yl)-ethylcarbamoyl]-4-isopropoxy-phenylethynyl}-furan-2-carboxylic acid] | 60 nM
7 | COc1ccc(C#Cc2ccc(OC(C)C)c(C(=O)N[C@@H](CO)Cc3c[nH]c4ccccc34)c2)cc1F [Example 30, 5-(3-Fluoro-4-methoxy-phenylethynyl)-N-[(R)-2-hydroxy-1-(1H-indol-3-ylmethyl)-ethyl]-2-isopropoxy-benzamide] | 150 nM
8 | CC(C)Oc1ccc(C#Cc2ccc3c(c2)CCNC3=O)cc1C(=O)N[C@@H](CO)Cc1c[nH]c2ccccc12 [Example 154, N-[(R)-1-Hydroxymethyl-2-(1H-indol-3-yl)-ethyl]-2-isopropoxy-5-(1-oxo-1,2,3,4-tetrahydro-isoquinolin-6-ylethynyl)-benzamide] | 6 nM
9 | CC(C)Oc1ccc(C#Cc2ccc(C(=O)NCCN3CCNC(=O)C3)cc2)cc1C(=O)N[C@@H](CO)Cc1c[nH]c2ccccc12 [Example 173, N-[(R)-1-Hydroxymethyl-2-(1H-indol-3-yl)-ethyl]-2-isopropoxy-5-{4-[2-(3-oxo-piperazin-1-yl)-ethylcarbamoyl]-phenylethynyl}-benzamide] | 35 nM
10 | CNC(=O)c1cccc(C#Cc2ccc(Cl)c(C(=O)NC(CO)Cc3c[nH]c4cc(F)ccc34)c2)c1 (stereo not shown) [Example 83, 2-Chloro-N-[2-(6-fluoro-1H-indol-3-yl)-1-hydroxymethyl-ethyl]-5-(3-methylcarbamoyl-phenylethynyl)-benzamide] | 700 nM
11 | COC(=O)CCNC(=O)c1cccc(C#Cc2ccc(OC(C)C)c(C(=O)N[C@@H](CO)Cc3c[nH]c4ccccc34)c2)c1 [Example 165, 3-(3-{3-[(R)-1-Hydroxymethyl-2-(1H-indol-3-yl)-ethylcarbamoyl]-4-isopropoxy-phenylethynyl}-benzoylamino)-propionic acid methyl ester] | 15 nM
12 | CC(C)Oc1ccc(C#Cc2ccc(-c3ccccc3)cc2)cc1C(=O)N[C@@H](CO)Cc1c[nH]c2ccccc12 [Example 111, 5-Biphenyl-4-ylethynyl-N-[(R)-1-hydroxymethyl-2-(1H-indol-3-yl)-ethyl]-2-isopropoxy-benzamide] | 2000 nM
13 | O=C(N[C@@H](CO)Cc1c[nH]c2ccccc12)c1cccc(C#Cc2ccccn2)c1 [Example 160, N-[(R)-1-Hydroxymethyl-2-(1H-indol-3-yl)-ethyl]-3-pyridin-2-ylethynyl-benzamide] | 6000 nM
14 | CC(C)Oc1ccc(C#Cc2ccc3[nH]ncc3c2)cc1C(=O)N[C@@H](CO)Cc1c[nH]c2ccccc12 [Example 113, N-[(R)-2-Hydroxy-1-(1H-indol-3-ylmethyl)-ethyl]-5-(1H-indazol-5-ylethynyl)-2-isopropoxy-benzamide] | 25 nM
15 | CC(C)Oc1ccc(C#Cc2cnc(N3CCOCC3)nc2)cc1C(=O)N[C@@H](CO)Cc1c[nH]c2ccccc12 [Example 145, N-[(R)-1-Hydroxymethyl-2-(1H-indol-3-yl)-ethyl]-2-isopropoxy-5-(2-morpholin-4-yl-pyrimidin-5-ylethynyl)-benzamide] | 300 nM
16 | CC(C)Oc1ccc(C#Cc2ccc3c(c2)C(=O)NC3)cc1C(=O)N[C@@H](CO)Cc1c[nH]c2ccccc12 [Example 155, N-[(R)-1-Hydroxymethyl-2-(1H-indol-3-yl)-ethyl]-2-isopropoxy-5-(3-oxo-2,3-dihydro-1H-isoindol-5-ylethynyl)-benzamide] | 15 nM
17 | CC(C)Oc1ccc(C#Cc2cccc(S(N)(=O)=O)c2)cc1C(=O)N[C@@H](CO)Cc1c[nH]c2ccccc12 [Example 123, N-[(R)-2-Hydroxy-1-(1H-indol-3-ylmethyl)-ethyl]-2-isopropoxy-5-(3-sulfamoyl-phenylethynyl)-benzamide] | 250 nM
18 | CC(C)Oc1ccc(C#Cc2ccc3c(c2)C(=O)NCC3)cc1C(=O)N[C@@H](CO)Cc1c[nH]c2ccccc12 [Example 68, N-[(R)-1-Hydroxymethyl-2-(1H-indol-3-yl)-ethyl]-2-isopropoxy-5-(1-oxo-1,2,3,4-tetrahydro-isoquinolin-7-ylethynyl)-benzamide] | 30 nM
19 | CC(C)Oc1ccc(C#Cc2ccc(N3CCCC3=O)cc2)cc1C(=O)N[C@@H](CO)Cc1c[nH]c2ccccc12 [Example 124, N-[(R)-1-Hydroxymethyl-2-(1H-indol-3-yl)-ethyl]-2-isopropoxy-5-[4-(2-oxo-pyrrolidin-1-yl)-phenylethynyl]-benzamide] | 80 nM
